# Experimental data: patent publication US20240277637A1, “CAPSAICIN DERIVATIVES IN THE TREATMENT OF IDIOPATHIC PULMONARY FIBROSIS” (aXichem AB, priority 2021, published 2024)
# Key:
# [1] = test system: human bronchial epithelial cells; assay: Clonogenic cell survival assay, bronchial epithelial cells with PDGF-AB (Example 4); assay type: cell-based; conditions: 10 ng/ml PDGF-AB, 14 days
# Method: (§1) Primary isolated human bronchial epithelial cells (NHBE) were used in this assay sourced from the American Tissue Culture Collection (Normal, Human (ATCC® BEAS-2B™)) and were cultured up to passage 6. […].
# The effects of Phenylcapsaicin (2) on clonogenic survival of bronchial epithelial cells, by plating the cells with increasing numbers (102 to 5×104) in 25 cm^2 flasks were investigated. SU9518* and Phenylcapsaicin were used as positive controls. The cells were incubated with 0-10 μM (3% DMSO aqueous) of Phenylcapsaicin, SU9518, and compounds 8-12 separately in the presence of 10 ng/ml PDGF-AB (Sigma Aldrich). The flasks were returned to the incubator for 14 days, after which they were stained with crystal violet (Sigma Aldrich). The colonies were counted and the surviving percentage was determined for clonogenic survival after correcting for plating efficiency. The synthetic analogs were all calculated at 100% purity for molar concentrations.
# [2] = test system: human corneal epithelial cells; assay: Proliferation assay, VEGF+bFGF-stimulated corneal epithelial proliferation (Example 1); assay type: cell-based; conditions: Corneal epithelial cell, highest dose tested 10 uM, 72 hours, read-out: IC50, VEGF+bFGF-induced proliferation
# Method: (§2) Primary isolated human corneal epithelial cells; Normal, Human cells (ATCC® PCS-700-010™) were maintained in culture at 37° C. with 5% CO2 and 95% humidity in serum reduced (5% fetal calf serum) modified promocell media (MPM) supplemented with 4 ng/ml fibronectin (FN), 2 ng/ml human recombinant vascular endothelial growth factor (VEGF) and 4 ng/ml basic fibroblast growth factor (bFGF).
# (§3) Corneal cells were harvested by trypsinization at 37° C. and neutralized with trypsin-neutralizing solution. A suspension of 50,000 cells in MPM/DMEM was added to 25 ml flasks. The cells were incubated with phenylcapsaicin or SU9518 for 1 hour in cytokine-free medium at standard conditions and incubated for another 72 hours in the presence of final mediums (either with 10 ng/ml PDGF-AB+4 ng/ml FN, or with 2 ng/ml VEGF+4 ng/ml bFGF+4 ng/ml FN). The cells were then dispersed in trypsin, resuspended, and counted in a coulter counter.
# [3] = test system: human bronchial epithelial cells; assay: Clonogenic cell survival assay, bronchial epithelial cells with PDGF-AB (Example 3); assay type: cell-based; conditions: 10 ng/ml PDGF-AB, 14 days
# Method: as §1
# A clonogenic cell survival assay determines the ability of a cell to proliferate indefinitely. Cells were plated with increasing numbers (102 to 5×10^4) in 25 cm^2 flasks. SU9518, SU9518, a known inhibitor PDGF that has shown the ability to reduce radiation-induced fibroblast and endothelial cell activation, and phenylcapsaicin were used as positive controls. The cells were incubated with 0-10 μM (3% DMSO aqueous) of phenylcapsaicin, SU9518, and compounds 1 and 3-7 separately in the presence of 10 ng/ml PDGF-AB (Sigma Aldrich). The flasks were returned to the incubator for 14 days, after which they were stained with crystal violet (Sigma Aldrich). The colonies were counted and the surviving percentage was determined for clonogenic survival after correcting for plating efficiency.
# [4] = test system: human corneal epithelial cells; assay: Clonogenic cell survival assay, corneal epithelial cells with PDGF-AB (Example 1); assay type: cell-based; conditions: 10 ng/ml PDGF-AB, 14 days
# Method: as §2
# A clonogenic cell survival assay determines the ability of a cell to proliferate indefinitely. The effects of phenylcapsaicin (2) on clonogenic survival of corneal epithelial cells was investigated by plating the cells with increasing numbers (102 to 5×104) in 25 cm^2 flasks. SU9518, a known inhibitor PDGF that has shown the ability to reduce radiation-induced fibroblast and endothelial cell activation, was used as the positive control. The cells were incubated with 0-10 μM of phenylcapsaicin and SU9518 separately in the presence of 10 ng/ml PDGF-AB. The flasks were returned to the incubator for 14 days, after which they were stained with crystal violet. The colonies were counted, and the surviving
# [5] = test system: human bronchial epithelial cells; assay: Proliferation assay, PDGF-stimulated bronchial epithelial proliferation (Example 2); assay type: cell-based; conditions: for IC50: Homo sapiens, Epithelial cell, 10 ng/ml PDGF, 72 hours
# Method: (§4) Primary isolated human bronchial epithelial cells (NHBE) (Normal, Human (ATCC® BEAS-2B™)) were cultured up to passage 6. […].
# (§5) Bronchial cells were harvested by trypsinisation at 37° C. and neutralised with trypsin-neutralising solution. A suspension of 50,000 cells in MPM/DMEM was added to 25 ml flasks. The cells were incubated with phenylcapsaicin or SU9518 for 1 hour in cytokine-free medium at standard conditions and incubated for another 72 hours in the presence of final mediums (either with 10 ng/ml PDGF-AB+4 ng/ml FN, or with 2 ng/ml VEGF+4 ng/ml bFGF+4 ng/ml FN). The cells were then dispersed in trypsin, resuspended, and counted in a coulter counter.
# [6] = test system: human corneal epithelial cells; assay: Proliferation assay, PDGF-stimulated corneal epithelial proliferation (Example 1); assay type: cell-based; conditions: for IC50: Homo sapiens, Corneal epithelial cell, 10 ng/ml PDGF, 72 hours
# Method: as §2, §3
# [7] = Acute inhalation toxicity test on rats; conditions: both sexes, rat, in vivo, inhaled; single exposure via inhalation, nose-only; male and female rats; based on active substance
# Excerpt: These findings strongly imply that phenylcapsaicin may be a useful drug against IPF, slowing down or reducing scarring of the lung tissue. Such a reduction in scarring may lead to a delayed progression of IPF and/or ease the symptoms of IPF, such as respiratory difficulty and/or coughing. […] This finding is an indication that the compounds of the invention will have a low toxicity in use against IPF using inhalation as the route of administration.
# [8] = test system: human bronchial epithelial cells; assay: Proliferation assay, VEGF+bFGF-stimulated bronchial epithelial proliferation (Example 2); assay type: cell-based; conditions: 72 hours
# Method: as §4, §5
# [9] = read-out: IC50, PDGF-induced epithelial proliferation
# [10] = read-out: IC50, PDGF-induced proliferation
structure (smiles),measurement,setting,value
"COc1cc(CNC(=O)CCCCC#Cc2ccccc2)ccc1O [Compound 2, N-(4-hydroxy-3-methoxybenzyl)-7-phenylhept-6-ynamide]",effect on clonogenic survival / PDGF inhibition (words),[1]; 0-10 μM,reduction in the survival fraction of endothelial cells in a dose dependent manner
same,Clonogenic Survival Assay (percent),[1]; 0.10 uM,83%
same,Clonogenic Survival Assay (percent),[1]; 0.50 uM,59%
same,Clonogenic Survival Assay (percent),[1]; 1.00 uM,41%
same,Clonogenic Survival Assay (percent),[1]; 2.00 uM,35%
same,Clonogenic Survival Assay (percent),[1]; 5.00 uM,35%
same,Clonogenic Survival Assay (percent),[1]; 10.00 uM,32%
same,IC50,[2],> 10000 nM
same,effect on clonogenic survival / PDGF inhibition (words),[3]; 0-10 μM,reduction in the survival fraction of endothelial cells in a dose dependent manner
same,Clonogenic Survival Assay (percent),[3]; 0.10 μM,83%
same,Clonogenic Survival Assay (percent),"[3]; 0.10 μM, listed as phenylcapsaicin",83%
same,Clonogenic Survival Assay (percent),[3]; 0.50 μM,59%
same,Clonogenic Survival Assay (percent),[3]; 1.00 μM,41%
same,Clonogenic Survival Assay (percent),[3]; 2.00 μM,35%
same,Clonogenic Survival Assay (percent),[3]; 5.00 μM,35%
same,Clonogenic Survival Assay (percent),[3]; 10.00 μM,32%
same,Clonogenic Survival Assay (percent),"[3]; 10.00 μM, listed as phenylcapsaicin",32%
same,effect on clonogenic survival,[4]; 0-10 μM,dose-dependant inhibitory effect on survival
same,surviving fraction of epithelial cells,[4]; 5 μM,27%
same,IC50,[5]; [9],~1000 nM
same,IC50,[5]; [10],~2000 nM
same,selectivity for PDGF pathway,"[5]; PDGF- versus VEGF+bFGF-induced proliferation, bronchial cells","work selectively on the PDGF pathway, although at a lower selectivity than in corneal cells"
same,IC50,[6]; [9],~1000 nM
same,IC50,[6]; [10],~1000 nM
same,selectivity for PDGF pathway,"[6]; PDGF- versus VEGF+bFGF-induced proliferation, corneal cells",work selectively on the PDGF pathway
same,LC50,[7],> 5.65 µg/mL
same,"IC75, epithelial proliferation stimulated by VEGF and bFGF",[8],~5000 nM
same,IC50,"[8]; Homo sapiens, Epithelial cell, highest dose tested 10 uM, read-out: IC50, VEGF+bFGF-induced proliferation",> 10000 nM
